# Data taken from ChEMBL document CHEMBL4325853, “Design, synthesis and antibacterial evaluation of 2,4-disubstituted-6-thiophenyl-pyrimidines” (Eur J Med Chem, 2019).
# Assays:
# Staphylococcus aureus [1] = experiment: Antibacterial activity against methicillin-resistant Staphylococcus aureus isolate 6515 after 18 hrs by broth microdilution method; assay type: functional; settings: isolate 6515, 18 h
# Enterococcus faecalis [2] = experiment: Antibacterial activity against Enterococcus faecalis ATCC 29212 after 18 hrs by broth microdilution method; assay type: functional; settings: ATCC 29212, 18 h
# Staphylococcus aureus [3] = experiment: Antibacterial activity against methicillin-resistant Staphylococcus aureus isolate 4023 after 18 hrs by broth microdilution method; assay type: functional; settings: isolate 4023, 18 h
# Staphylococcus aureus [4] = experiment: Antibacterial activity against methicillin-resistant Staphylococcus aureus isolate 7587 after 18 hrs by broth microdilution method; assay type: functional; settings: isolate 7587, 18 h
# Staphylococcus aureus [5] = experiment: Antibacterial activity against methicillin-resistant Staphylococcus aureus isolate 3096 after 18 hrs by broth microdilution method; assay type: functional; settings: isolate 3096, 18 h
# Staphylococcus aureus [6] = experiment: Ratio of MBC to MIC for methicillin-resistant Staphylococcus aureus ATCC 43300; assay type: functional
# Staphylococcus aureus [7] = experiment: Antibacterial activity against methicillin-resistant Staphylococcus aureus isolate 5395 after 18 hrs by broth microdilution method; assay type: functional; settings: isolate 5395, 18 h
# Staphylococcus aureus [8] = experiment: Potency index, ratio of methicillin MIC to test compound MIC for methicillin-resistant Staphylococcus aureus ATCC BAA41; assay type: functional
# Staphylococcus aureus [9] = experiment: Antibacterial activity against methicillin-resistant Staphylococcus aureus isolate 5426 after 18 hrs by broth microdilution method; assay type: functional; settings: isolate 5426, 18 h
# Staphylococcus aureus [10] = experiment: Antibacterial activity against methicillin-resistant Staphylococcus aureus isolate 7864 after 18 hrs by broth microdilution method; assay type: functional; settings: isolate 7864, 18 h
# Staphylococcus aureus [11] = experiment: Antibacterial activity against methicillin-resistant Staphylococcus aureus isolate 5056 after 18 hrs by broth microdilution method; assay type: functional; settings: isolate 5056, 18 h
# [12] = molecular target: T1, Cell division protein FtsZ (Staphylococcus aureus) (UniProt P0A031); experiment: Inhibition of recombinant Staphylococcus aureus FtsZ GTPase activity assessed as reduction in inorganic phosphate formation after 30 mins by colorimetric method
# T1 sequence (whole entry): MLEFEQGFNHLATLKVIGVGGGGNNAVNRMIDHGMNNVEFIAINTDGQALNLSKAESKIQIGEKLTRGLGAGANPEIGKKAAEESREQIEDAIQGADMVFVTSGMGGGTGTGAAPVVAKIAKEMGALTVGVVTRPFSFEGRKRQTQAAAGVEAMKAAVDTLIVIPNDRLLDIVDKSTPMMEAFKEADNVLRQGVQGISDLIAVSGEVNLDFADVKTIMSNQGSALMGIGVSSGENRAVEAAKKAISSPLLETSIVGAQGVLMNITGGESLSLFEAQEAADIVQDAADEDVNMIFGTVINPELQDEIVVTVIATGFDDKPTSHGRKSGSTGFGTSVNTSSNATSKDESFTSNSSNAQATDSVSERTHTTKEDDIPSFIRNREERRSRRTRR
# Enterococcus faecalis [13] = experiment: Bactericidal activity against vancomycin-resistant Enterococcus faecalis ATCC 700221 after 18 hrs by broth microdilution method; assay type: functional; settings: ATCC 700221, 18 h
# Staphylococcus aureus [14] = experiment: Antibacterial activity against methicillin-resistant Staphylococcus aureus isolate 5035 after 18 hrs by broth microdilution method; assay type: functional; settings: isolate 5035, 18 h
# Staphylococcus aureus [15] = experiment: Antibacterial activity against methicillin-resistant Staphylococcus aureus isolate 7717 after 18 hrs by broth microdilution method; assay type: functional; settings: isolate 7717, 18 h
# Staphylococcus aureus [16] = experiment: Antibacterial activity against methicillin-resistant Staphylococcus aureus isolate 3123 after 18 hrs by broth microdilution method; assay type: functional; settings: isolate 3123, 18 h
# Staphylococcus aureus [17] = experiment: Antibacterial activity against methicillin-resistant Staphylococcus aureus ATCC BAA1720 after 18 hrs by broth microdilution method; assay type: functional; settings: ATCC BAA1720, 18 h
# Staphylococcus aureus [18] = experiment: Potency index, ratio of methicillin MIC to test compound MIC for methicillin-resistant Staphylococcus aureus ATCC BAA1720; assay type: functional
# [19] = test system: Staphylococcus epidermidis; experiment: Antibacterial activity against Staphylococcus epidermidis ATCC 12228 after 18 hrs by broth microdilution method; assay type: functional; settings: ATCC 12228, 18 h
# [20] = Selectivity index, ratio of HC50 for human erythrocytes to MIC for methicillin-resistant Staphylococcus aureus ATCC 33591; assay type: toxicity; settings: read-out: Selectivity Index
# Staphylococcus aureus [21] = experiment: Antibacterial activity against methicillin-resistant Staphylococcus aureus isolate 7536 after 18 hrs by broth microdilution method; assay type: functional; settings: isolate 7536, 18 h
# Staphylococcus aureus [22] = experiment: Antibacterial activity against methicillin-resistant Staphylococcus aureus isolate 4548 after 18 hrs by broth microdilution method; assay type: functional; settings: isolate 4548, 18 h
# Staphylococcus aureus [23] = experiment: Antibacterial activity against methicillin-resistant Staphylococcus aureus isolate 8162 after 18 hrs by broth microdilution method; assay type: functional; settings: isolate 8162, 18 h
# Staphylococcus aureus [24] = experiment: Antibacterial activity against methicillin-resistant Staphylococcus aureus isolate 1428 after 18 hrs by broth microdilution method; assay type: functional; settings: isolate 1428, 18 h
# Staphylococcus aureus [25] = experiment: Antibacterial activity against methicillin-resistant Staphylococcus aureus isolate 8179 after 18 hrs by broth microdilution method; assay type: functional; settings: isolate 8179, 18 h
# Staphylococcus aureus [26] = experiment: Potency index, ratio of methicillin MIC to test compound MIC for methicillin-resistant Staphylococcus aureus ATCC 33591; assay type: functional
# Staphylococcus aureus [27] = experiment: Antibacterial activity against methicillin-resistant Staphylococcus aureus isolate 1947 after 18 hrs by broth microdilution method; assay type: functional; settings: isolate 1947, 18 h
# Staphylococcus aureus [28] = experiment: Bactericidal activity against methicillin-resistant Staphylococcus aureus ATCC BAA41 after 18 hrs by broth microdilution method; assay type: functional; settings: ATCC BAA41, 18 h
# Staphylococcus aureus [29] = experiment: Potency index, ratio of berberine MIC to test compound MIC for Staphylococcus aureus ATCC 29213; assay type: functional
# [30] = Selectivity index, ratio of HC50 for human erythrocytes to MIC for methicillin-resistant Staphylococcus aureus ATCC 43300; assay type: toxicity; settings: read-out: Selectivity Index
# Staphylococcus aureus [31] = experiment: Antibacterial activity against methicillin-resistant Staphylococcus aureus isolate 7917 after 18 hrs by broth microdilution method; assay type: functional; settings: isolate 7917, 18 h
# Staphylococcus aureus [32] = experiment: Antibacterial activity against methicillin-resistant Staphylococcus aureus isolate 3170 after 18 hrs by broth microdilution method; assay type: functional; settings: isolate 3170, 18 h
# Staphylococcus aureus [33] = experiment: Antibacterial activity against methicillin-resistant Staphylococcus aureus isolate 1610 after 18 hrs by broth microdilution method; assay type: functional; settings: isolate 1610, 18 h
# Staphylococcus aureus [34] = experiment: Antibacterial activity against methicillin-resistant Staphylococcus aureus ATCC BAA41 after 18 hrs by broth microdilution method; assay type: functional; settings: ATCC BAA41, 18 h
# Staphylococcus aureus [35] = experiment: Antibacterial activity against methicillin-resistant Staphylococcus aureus isolate 7971 after 18 hrs by broth microdilution method; assay type: functional; settings: isolate 7971, 18 h
# Staphylococcus aureus [36] = experiment: Antibacterial activity against methicillin-resistant Staphylococcus aureus isolate 2491 after 18 hrs by broth microdilution method; assay type: functional; settings: isolate 2491, 18 h
# Staphylococcus aureus [37] = experiment: Antibacterial activity against methicillin-resistant Staphylococcus aureus ATCC 43300 after 18 hrs by broth microdilution method; assay type: functional; settings: ATCC 43300, 18 h
# Staphylococcus aureus [38] = experiment: Bactericidal activity against methicillin-resistant Staphylococcus aureus ATCC 43300 after 18 hrs by broth microdilution method; assay type: functional; settings: ATCC 43300, 18 h
# Staphylococcus aureus [39] = experiment: Antibacterial activity against methicillin-resistant Staphylococcus aureus isolate 5239 after 18 hrs by broth microdilution method; assay type: functional; settings: isolate 5239, 18 h
# Staphylococcus aureus [40] = experiment: Antibacterial activity against methicillin-resistant Staphylococcus aureus isolate 2158 after 18 hrs by broth microdilution method; assay type: functional; settings: isolate 2158, 18 h
# Staphylococcus aureus [41] = experiment: Antibacterial activity against Staphylococcus aureus ATCC 29213 after 18 hrs by broth microdilution method; assay type: functional; settings: ATCC 29213, 18 h
compound,measurement,setting,value
CC(C)c1ccc(CN2CCCN(CCc3cc(-c4cccs4)nc(-c4ccncc4)n3)CC2)cc1,MIC90,Staphylococcus aureus [1],2 µg/mL
same,MIC90,Enterococcus faecalis [2],2 µg/mL
same,MIC90,Staphylococcus aureus [3],2 µg/mL
same,MIC90,Staphylococcus aureus [4],2 µg/mL
same,MIC90,Staphylococcus aureus [5],2 µg/mL
same,Ratio,Staphylococcus aureus [6],2
same,MIC90,Staphylococcus aureus [7],2 µg/mL
same,Ratio,Staphylococcus aureus [8],>100
same,MIC90,Staphylococcus aureus [9],2 µg/mL
same,MIC90,Staphylococcus aureus [10],2 µg/mL
same,MIC90,Staphylococcus aureus [11],2 µg/mL
same,inhibition,[12],Dose-dependent effect
same,MBC,Enterococcus faecalis [13],4 µg/mL
same,MIC90,Staphylococcus aureus [14],2 µg/mL
same,MIC90,Staphylococcus aureus [15],2 µg/mL
same,MIC90,Staphylococcus aureus [16],2 µg/mL
same,MIC90,Staphylococcus aureus [17],2 µg/mL
same,Ratio,Staphylococcus aureus [18],>100
same,MIC90,[19],2 µg/mL
same,selectivity ratio,[20],> 32
same,MIC90,Staphylococcus aureus [21],2 µg/mL
same,MIC90,Staphylococcus aureus [22],2 µg/mL
same,MIC90,Staphylococcus aureus [23],2 µg/mL
same,MIC90,Staphylococcus aureus [24],2 µg/mL
same,MIC90,Staphylococcus aureus [25],2 µg/mL
same,Ratio,Staphylococcus aureus [26],>100
same,MIC90,Staphylococcus aureus [27],2 µg/mL
same,MBC,Staphylococcus aureus [28],2 µg/mL
same,Ratio,Staphylococcus aureus [29],50 - 100
same,selectivity ratio,[30],> 32
same,MIC90,Staphylococcus aureus [31],2 µg/mL
same,MIC90,Staphylococcus aureus [32],2 µg/mL
same,MIC90,Staphylococcus aureus [33],4 µg/mL
same,MIC90,Staphylococcus aureus [34],2 µg/mL
same,MIC90,Staphylococcus aureus [35],2 µg/mL
same,MIC90,Staphylococcus aureus [36],4 µg/mL
same,MIC90,Staphylococcus aureus [37],2 µg/mL
same,MBC,Staphylococcus aureus [38],4 µg/mL
same,MIC90,Staphylococcus aureus [39],2 µg/mL
same,MIC90,Staphylococcus aureus [40],2 µg/mL
same,MIC90,Staphylococcus aureus [41],2 µg/mL
COc1cccc(OC)c1C(=O)N[C@@H]1C(=O)N2[C@@H]1SC(C)(C)[C@@H]2C(=O)O [METHICILLIN],MIC90,Staphylococcus aureus [1],> 64 µg/mL
same,MIC90,Enterococcus faecalis [2],6 µg/mL
same,MIC90,Staphylococcus aureus [3],> 64 µg/mL
same,MIC90,Staphylococcus aureus [4],> 64 µg/mL
same,MIC90,Staphylococcus aureus [5],> 64 µg/mL
same,MIC90,Staphylococcus aureus [7],> 64 µg/mL
same,MIC90,Staphylococcus aureus [9],> 64 µg/mL
same,MIC90,Staphylococcus aureus [10],> 64 µg/mL
same,MIC90,Staphylococcus aureus [11],> 64 µg/mL
same,MIC90,Staphylococcus aureus [14],> 64 µg/mL
same,MIC90,Staphylococcus aureus [15],> 64 µg/mL
same,MIC90,Staphylococcus aureus [16],> 64 µg/mL
same,MIC90,Staphylococcus aureus [17],> 192 µg/mL
same,MIC90,[19],0.5 µg/mL
same,MIC90,Staphylococcus aureus [21],> 64 µg/mL
same,MIC90,Staphylococcus aureus [22],> 64 µg/mL
same,MIC90,Staphylococcus aureus [23],> 64 µg/mL
same,MIC90,Staphylococcus aureus [24],> 64 µg/mL
same,MIC90,Staphylococcus aureus [25],> 64 µg/mL
same,MIC90,Staphylococcus aureus [27],> 64 µg/mL
same,MIC90,Staphylococcus aureus [31],> 64 µg/mL
same,MIC90,Staphylococcus aureus [32],> 64 µg/mL
same,MIC90,Staphylococcus aureus [33],> 64 µg/mL
same,MIC90,Staphylococcus aureus [34],> 192 µg/mL
same,MIC90,Staphylococcus aureus [35],> 64 µg/mL
same,MIC90,Staphylococcus aureus [36],> 64 µg/mL
same,MIC90,Staphylococcus aureus [37],> 192 µg/mL
same,MIC90,Staphylococcus aureus [39],> 64 µg/mL
same,MIC90,Staphylococcus aureus [40],> 64 µg/mL
same,MIC90,Staphylococcus aureus [41],1 µg/mL
